Results reported in ChEMBL document CHEMBL3885881, “DrugMatrix”.

Species: Rattus norvegicus
Assay: DrugMatrix - Regimen: Daily Repeat
Assay type: toxicity, organism-based, Sprague-Dawley
Parameters: regimen Daily Repeat, gender Male, age 6-8 weeks
Details: in vivo, iv, vehicle 100 % SALINE; for ABSOLUTE BASOPHIL / ABSOLUTE EOSINOPHIL / ABSOLUTE LYMPHOCYTE / ABSOLUTE MONOCYTE / ABSOLUTE SEGMENTED NEUTROPHIL / BASOPHIL / EOSINOPHIL / ERYTHROCYTE COUNT / HEMATOCRIT / HEMOGLOBIN / LEUKOCYTE COUNT / LYMPHOCYTE / MEAN CORPUSCULAR HEMOGLOBIN / MEAN CORPUSCULAR HEMOGLOBIN CONCENTRATION / MEAN CORPUSCULAR VOLUME / MONOCYTE / NEUTROPHIL / NUCLEATED RED BLOOD CELLS / PLATELET COUNT: tissue Blood; for ALANINE AMINOTRANSFERASE / ALBUMIN / ALKALINE PHOSPHATASE / ASPARTATE AMINOTRANSFERASE / BLOOD UREA NITROGEN / CARBON DIOXIDE / CHLORIDE / CHOLESTEROL / CREATINE PHOSPHOKINASE / CREATININE / GLUCOSE / LACTATE DEHYDROGENASE / LIPASE / PHOSPHORUS / POTASSIUM / SODIUM / TOTAL BILIRUBIN / TOTAL PROTEIN / URIC ACID: tissue Plasma
[1] = 11 mg/kg, 72 h, dose level High, time 3 day
[2] = 11 mg/kg, 120 h, dose level High, time 5 day
[3] = […], 72 h, dose 2.6 mg/Kg, dose level Low, time 3 day
[4] = […], 120 h, dose 2.6 mg/Kg, dose level Low, time 5 day

## Nc1ccn([C@@H]2O[C@H](CO)[C@@H](O)C2(F)F)c(=O)n1 [GEMCITABINE]
[1]
  ABSOLUTE BASOPHIL: 0 CELLS/uL
  ABSOLUTE EOSINOPHIL: 0 CELLS/uL
  ABSOLUTE LYMPHOCYTE: 4311.33 CELLS/uL
  ABSOLUTE MONOCYTE: 21.67 CELLS/uL
  ABSOLUTE SEGMENTED NEUTROPHIL: 200.33 CELLS/uL
  BASOPHIL: 0%
  EOSINOPHIL: 0%
  ERYTHROCYTE COUNT: 5.19 x10E6/uL
  HEMATOCRIT: 33.27%
  HEMOGLOBIN: 13.03 G/DL
  LEUKOCYTE COUNT: 4.53 x10E3/uL
  LYMPHOCYTE: 95%
  MEAN CORPUSCULAR HEMOGLOBIN: 25.07 pg
  MEAN CORPUSCULAR HEMOGLOBIN CONCENTRATION: 39.2 G/DL
  MEAN CORPUSCULAR VOLUME: 63.93 fL
  MONOCYTE: 0.33%
  NEUTROPHIL: 4.67%
  NUCLEATED RED BLOOD CELLS: 0 /100WBC
  PLATELET COUNT: 706.67 x10E3/uL
  ALANINE AMINOTRANSFERASE: 46.67 u/L
  ALBUMIN: 3.5 G/DL
  ALKALINE PHOSPHATASE: 373 u/L
  ASPARTATE AMINOTRANSFERASE: 100.67 u/L
  BLOOD UREA NITROGEN: 15.67 mg/dL
  CARBON DIOXIDE: 24.33 mmol/L
  CHLORIDE: 107.33 MEQ/L
  CHOLESTEROL: 63.33 mg/dL
  CREATINE PHOSPHOKINASE: 316.67 u/L
  CREATININE: 0.13 mg/dL
  GLUCOSE: 143 mg/dL
  LACTATE DEHYDROGENASE: 80.33 u/L
  LIPASE: 8 u/L
  PHOSPHORUS: 9.73 mg/dL
  POTASSIUM: 5.2 MEQ/L
  SODIUM: 145.57 MEQ/L
  TOTAL BILIRUBIN: 0.17 mg/dL
  TOTAL PROTEIN: 4.97 G/DL
  URIC ACID: 1.3 mg/dL
[2]
  ABSOLUTE BASOPHIL: 0 CELLS/uL
  ABSOLUTE EOSINOPHIL: 12.67 CELLS/uL
  ABSOLUTE LYMPHOCYTE: 2696.33 CELLS/uL
  ABSOLUTE MONOCYTE: 10 CELLS/uL
  ABSOLUTE SEGMENTED NEUTROPHIL: 47.67 CELLS/uL
  BASOPHIL: 0%
  EOSINOPHIL: 0.33%
  ERYTHROCYTE COUNT: 8.1 x10E6/uL
  HEMATOCRIT: 50%
  HEMOGLOBIN: 19.4 G/DL
  LEUKOCYTE COUNT: 2.77 x10E3/uL
  LYMPHOCYTE: 97.67%
  MEAN CORPUSCULAR HEMOGLOBIN: 24 pg
  MEAN CORPUSCULAR HEMOGLOBIN CONCENTRATION: 38.9 G/DL
  MEAN CORPUSCULAR VOLUME: 61.67 fL
  MONOCYTE: 0.33%
  NEUTROPHIL: 1.67%
  NUCLEATED RED BLOOD CELLS: 0.33 /100WBC
  PLATELET COUNT: 374.33 x10E3/uL
  ALANINE AMINOTRANSFERASE: 34.67 u/L
  ALBUMIN: 3.5 G/DL
  ALKALINE PHOSPHATASE: 152.67 u/L
  ASPARTATE AMINOTRANSFERASE: 232 u/L
  BLOOD UREA NITROGEN: 36.67 mg/dL
  CARBON DIOXIDE: 26.33 mmol/L
  CHLORIDE: 107 MEQ/L
  CHOLESTEROL: 104.67 mg/dL
  CREATINE PHOSPHOKINASE: 2721.33 u/L
  CREATININE: 0.23 mg/dL
  GLUCOSE: 286.33 mg/dL
  LACTATE DEHYDROGENASE: 384.67 u/L
  LIPASE: 10.33 u/L
  PHOSPHORUS: 10.93 mg/dL
  POTASSIUM: 4.87 MEQ/L
  SODIUM: 146.9 MEQ/L
  TOTAL BILIRUBIN: 0.1 mg/dL
  TOTAL PROTEIN: 6.03 G/DL
  URIC ACID: 1.6 mg/dL
[3]
  ABSOLUTE BASOPHIL: 0 CELLS/uL
  ABSOLUTE EOSINOPHIL: 0 CELLS/uL
  ABSOLUTE LYMPHOCYTE: 7048.67 CELLS/uL
  ABSOLUTE MONOCYTE: 0 CELLS/uL
  ABSOLUTE SEGMENTED NEUTROPHIL: 484.67 CELLS/uL
  BASOPHIL: 0%
  EOSINOPHIL: 0%
  ERYTHROCYTE COUNT: 5.03 x10E6/uL
  HEMATOCRIT: 31.87%
  HEMOGLOBIN: 12.73 G/DL
  LEUKOCYTE COUNT: 7.53 x10E3/uL
  LYMPHOCYTE: 93.67%
  MEAN CORPUSCULAR HEMOGLOBIN: 25.37 pg
  MEAN CORPUSCULAR HEMOGLOBIN CONCENTRATION: 39.97 G/DL
  MEAN CORPUSCULAR VOLUME: 63.43 fL
  MONOCYTE: 0%
  NEUTROPHIL: 6.33%
  NUCLEATED RED BLOOD CELLS: 0 /100WBC
  PLATELET COUNT: 1190.67 x10E3/uL
  ALANINE AMINOTRANSFERASE: 55.33 u/L
  ALBUMIN: 4.03 G/DL
  ALKALINE PHOSPHATASE: 332.67 u/L
  ASPARTATE AMINOTRANSFERASE: 110 u/L
  BLOOD UREA NITROGEN: 16.67 mg/dL
  CARBON DIOXIDE: 25 mmol/L
  CHLORIDE: 97.67 MEQ/L
  CHOLESTEROL: 76.67 mg/dL
  CREATINE PHOSPHOKINASE: 485.33 u/L
  CREATININE: 0.14 mg/dL
  GLUCOSE: 175.33 mg/dL
  LACTATE DEHYDROGENASE: 141.67 u/L
  LIPASE: 9 u/L
  PHOSPHORUS: 12.07 mg/dL
  POTASSIUM: 6.4 MEQ/L
  SODIUM: 141.6 MEQ/L
  TOTAL BILIRUBIN: 0.2 mg/dL
  TOTAL PROTEIN: 5.93 G/DL
  URIC ACID: 1.5 mg/dL
[4]
  ABSOLUTE BASOPHIL: 0 CELLS/uL
  ABSOLUTE EOSINOPHIL: 0 CELLS/uL
  ABSOLUTE LYMPHOCYTE: 4224 CELLS/uL
  ABSOLUTE MONOCYTE: 19 CELLS/uL
  ABSOLUTE SEGMENTED NEUTROPHIL: 23.67 CELLS/uL
  BASOPHIL: 0%
  EOSINOPHIL: 0%
  ERYTHROCYTE COUNT: 5.09 x10E6/uL
  HEMATOCRIT: 32.1%
  HEMOGLOBIN: 12.83 G/DL
  LEUKOCYTE COUNT: 4.27 x10E3/uL
  LYMPHOCYTE: 99%
  MEAN CORPUSCULAR HEMOGLOBIN: 25.2 pg
  MEAN CORPUSCULAR HEMOGLOBIN CONCENTRATION: 39.97 G/DL
  MEAN CORPUSCULAR VOLUME: 63.1 fL
  MONOCYTE: 0.33%
  NEUTROPHIL: 0.67%
  NUCLEATED RED BLOOD CELLS: 0.33 /100WBC
  PLATELET COUNT: 699.67 x10E3/uL
  ALANINE AMINOTRANSFERASE: 46.33 u/L
  ALBUMIN: 4.17 G/DL
  ALKALINE PHOSPHATASE: 368 u/L
  ASPARTATE AMINOTRANSFERASE: 127.67 u/L
  BLOOD UREA NITROGEN: 13.33 mg/dL
  CARBON DIOXIDE: 24.67 mmol/L
  CHLORIDE: 104 MEQ/L
  CHOLESTEROL: 70.67 mg/dL
  CREATINE PHOSPHOKINASE: 350.33 u/L
  CREATININE: 0.12 mg/dL
  GLUCOSE: 151.67 mg/dL
  LACTATE DEHYDROGENASE: 93.33 u/L
  LIPASE: 8 u/L
  PHOSPHORUS: 11.03 mg/dL
  POTASSIUM: 6.21 MEQ/L
  SODIUM: 143.67 MEQ/L
  TOTAL BILIRUBIN: 0.1 mg/dL
  TOTAL PROTEIN: 6.03 G/DL
  URIC ACID: 1.63 mg/dL
